Assays:
Format in all cases: physicochemical
apoaequorin [1] = target: T1, apoaequorin (Aequorea victoria, UniProt P07164); assay: Fluorescence spectra of semi-synthetic gFP (coelenteramide analogue + apoaequorin, EDTA); conditions: 10 mM EDTA buffer, excitation 337 nm
T1 construct: purchased Chisso Corporation
Procedure: Semi-synthetic gFP was prepared from recombinant apoaequorin and coelenteramide analogues as follows. In 1 ml of 50 mM Tris-HC 1 (pH 7.6) containing 10 mM EDTA and 1 mM DTT, apoaequorin (0.2 mg) was mixed with 8 μl of a coelenteramide analogue (1 μg/μl in anhydrous methanol). The mixture was allowed to stand 4° C. for 16 hours to prepare semi-synthetic gFP-like protein (hereinafter sometimes simply referred to as “semi-synthetic gFP”).
(§1) The fluorescence spectra were determined as follows. For coelenteramide analogue alone, the fluorescence was measured according to the procedures for semi-synthetic gFP and semi-synthetic BFP described in EXAMPLES 11 and 12, except for in the absence of apoaequorin, using 1 ml of 50 mM Tris-HCl (pH 7.6) containing 10 mM EDTA and 1 mM DTT or 1 ml of 50 mM Tris-HCl (pH 7.6) containing 10 mM CaCl2 and 1 mM DTT, in the final concentration of coelenteramide analogue adjusted to 8 μg/ml. The fluorescence spectra were measured at 25° C. in a quartz cell (10 mm light path length) using a Jasco FP-6500 spectrofluorometer (excitation wavelength: 337 nm, emission/excitation bandwidth: 3 nm; response: 0.5 sec, scan speed, 1000 nm/min).

apoaequorin [2] = target: T1, apoaequorin; assay: Fluorescence spectra of semi-synthetic BFP (coelenteramide analogue + apoaequorin, CaCl2); conditions: 10 mM CaCl2 buffer, excitation 337 nm
Procedure: Semi-synthetic gFP was prepared from recombinant apoaequorin and coelenteramide analogues as follows. In 1 ml of 50 mM Tris-HC 1 (pH 7.6) containing 10 mM CaCl2 and 1 mM DTT, apoaequorin (0.2 mg) was mixed with 8 μl of a coelenteramide analogue (1 μg/μl in anhydrous methanol). The mixture was allowed to stand at 4° C. for 16 hours to prepare semi-synthetic BFP-like protein (hereinafter sometimes simply referred to as “semi-synthetic BFP”).
as §1

[3] = Fluorescence spectra of coelenteramide analogue alone (absence of apoaequorin); conditions: analogue alone 8 μg/ml; for Coelenteramide (Buffer containing CaCl2) Fluorescence intensity (rlu) / Coelenteramide (Buffer containing CaCl2) Maximum fluorescence wavelength λmax (nm): 10 mM CaCl2 buffer pH 7.6, excitation 337 nm; for Coelenteramide (EDTA-containing buffer) Fluorescence intensity (rlu) / Coelenteramide (EDTA-containing buffer) Maximum fluorescence wavelength λmax (nm): 10 mM EDTA buffer pH 7.6, excitation 337 nm
Procedure: as §1

T1 sequence (P07164 other isoform, or with tags, fused parts or gaps with the stated changes): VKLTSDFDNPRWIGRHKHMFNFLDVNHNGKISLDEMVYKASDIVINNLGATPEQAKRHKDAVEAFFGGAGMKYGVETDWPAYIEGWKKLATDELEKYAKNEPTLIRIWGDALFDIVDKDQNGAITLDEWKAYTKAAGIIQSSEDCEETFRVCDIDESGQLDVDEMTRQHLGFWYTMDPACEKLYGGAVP

Row | Structure (SMILES) | Semi-synthetic gFP (EDTA-containing buffer) Fluorescence intensity (rlu) (apoaequorin [1]) | Semi-synthetic gFP (EDTA-containing buffer) Maximum fluorescence wavelength λmax (nm) (apoaequorin [1]) | Fluorescence intensity (apoaequorin [2]) [rlu] | Semi-synthetic BFP (Buffer containing CaCl2) Maximum fluorescence wavelength λmax (nm) (apoaequorin [2]) | Coelenteramide (Buffer containing CaCl2) Fluorescence intensity (rlu) [3] [rlu] | Coelenteramide (Buffer containing CaCl2) Maximum fluorescence wavelength λmax (nm) [3] [nm] | Coelenteramide (EDTA-containing buffer) Fluorescence intensity (rlu) [3] [rlu] | Coelenteramide (EDTA-containing buffer) Maximum fluorescence wavelength λmax (nm) [3] [nm]
1 | O=C(Cc1ccc(O)cc1)Nc1ncc(-c2ccc(O)cc2)nc1-c1csc2ccccc12 [Compound 4i, N-[3-(Benzo[b]thiophen-3-yl)-5-(4-hydroxyphenyl)pyrazin-2-yl]-2-(4-hydroxyphenyl) acetamide] | 106.5 | 512.5 | 80.0 | 494.0 | 11.8 | 468.0 | 12.1 | 471.5
2 | O=C(Cc1ccc(O)cc1)Nc1ncc(-c2ccc(O)cc2)nc1-c1ccc(O)cc1 [Compound 4j, N-[3,5-Bis(4-hydroxyphenyl)pyrazin-2-yl]-2-(4-hydroxyphenyl)acetamide] | 69.7 | 492.5 | 100.5 | 489.0 | 22.4 | 481.0 | 22.5 | 482.5
3 | O=C(Cc1ccc(O)cc1)Nc1ncc(-c2ccc(O)cc2)nc1-c1cc2sccc2s1 [Compound 4k, 2-(4-Hydroxyphenyl)-N-[5-(4-hydroxyphenyl)-3-(thieno[3,2-b]thiophen-2-yl)pyrazin-2-yl]acetamide] | 139.9 | 532.0 | 148.2 | 538.5 | 9.7 | 491.0 | 10.3 | 487.5
4 | O=C(Cc1ccc(O)cc1)Nc1ncc(-c2ccc(O)cc2)nc1-c1cc2sc3ccsc3c2s1 [Compound 4l, 2-(4-Hydroxyphenyl)-N-[5-(4-hydroxyphenyl)-3-(thieno[3,2-b:2′,3′-d]thiophen-2-yl)pyrazin-2-yl]acetamide] | 140.5 | 524.5 | 63.5 | 468.0 | 8.8 | 523.0 | 9.3 | 523.5
5 | O=C(Cc1ccc(O)cc1)Nc1ncc(-c2ccc(O)cc2)nc1-c1ccc([N+](=O)[O-])cc1 [Compound 4o, 2-(4-Hydroxyphenyl)-N-[5-(4-hydroxyphenyl)-3-(4-nitrophenyl)pyrazin-2-yl]acetamide] | 3.4 | 485.0 | 3.9 | 477.5 | 2.1 | 478.5 | 2.1 | 482.5
6 | O=C(Cc1ccc(O)cc1)Nc1ncc(-c2ccc(O)cc2)nc1C#Cc1ccccc1 [Compound 4p, 2-(4-Hydroxyphenyl)-N-[5-(4-hydroxyphenyl)-3-(phenylethynyl)pyrazin-2-yl]acetamide] | 21.1 | 523.0 | 70.0 | 548.5 | 5.4 | 484.5 | 5.3 | 476.0
7 | O=C(Cc1ccc(O)cc1)Nc1ncc(-c2ccc(O)cc2)nc1CCc1ccccc1 [Compound 4r, 2-(4-Hydroxyphenyl)-N-[5-(4-hydroxyphenyl)-3-phenethylpyrazin-2-yl]acetamide] | 176.4 | 468.0 | 159.9 | 468.0 | 10.2 | 483.0 | 10.3 | 481.0
8 | O=C(Cc1ccc(O)cc1)Nc1cnc(-c2ccc(O)cc2)cn1 [Compound 4s, 2-(4-Hydroxyphenyl)-N-[5-(4-hydroxyphenyl)pyrazin-2-yl]acetamide] | 106.4 | 460.0 | 22.1 | 408.5 | 2.0 | 468.5 | 1.9 | 457.5
9 | Oc1ccc(NC(=S)Nc2ncc(-c3ccc(O)cc3)nc2Cc2ccccc2)cc1 [Compound 4v, 1-[3-Benzyl-5-(4-hydroxyphenyl)pyrazin-2-yl]-3-(4-hydroxyphenyl)thiourea] | 3.6 | 491.0 | 3.3 | 430.5 | 1.4 | 466.0 | 1.4 | 484.0
10 | CC(C(=O)Nc1ncc(-c2ccc(O)cc2)nc1Cc1ccccc1)c1ccc(O)cc1 (stereo not shown) [Compound 4w, N-[3-Benzyl-5-(4-hydroxyphenyl)pyrazin-2-yl]-2-(4-hydroxyphenyl)propanamide] | 54.6 | 487.0 | 181.4 | 466.0 | 1.4 | 450.5 | 1.3 | 451.0
11 | O=C(Nc1ncc(-c2ccc(O)cc2)nc1Cc1ccccc1)c1cccc2cc(O)ccc12 [Compound 4z, N-[3-Benzyl-5-(4-hydroxyphenyl)pyrazin-2-yl]-6-hydroxy-1-naphthamide] | 246.3 | 492.5 | 24.6 | 487.0 | 13.2 | 410.5 | 20.2 | 409.5

From patent US9056840B2, “Coelenterazine analogues and coelenteramide analogues” (JNC Corporation, priority 2010, dated 2015)
